The record followed here is BindingDB's records for doi:10.1039/c5md00579e (The Scripps Research Institute, 2016).

The assay can be described thus: Inhibition of MCT1 in human Raji cells assessed as inhibition of cell proliferation after 96 hrs by MTT assay.

`CC(C)Cc1nn(C)c(=O)c2c(SCCCO)n(Cc3ccc(Cl)nc3)cc12`: the EC50 came to 690 nM.

On to `CC(C)Cc1nn(C)c(=O)c2c(SCCCO)n(Cc3ccnc(NCCCCCN)c3)cc12`, for which the EC50 was 520 nM.

Take `CC(C)Cc1nn(C)c(=O)c2c(SCCCO)n(Cc3ccc(Br)c4ccccc34)cc12`: the EC50 was determined as 11 nM.

Take `CC(C)Cc1nn(C)c(=O)c2c(SCCCO)n(Cc3ccc(NCCCCCN)nc3)cc12`: the concentration giving a half-maximal response (EC50) stood at 420 nM.

Consider `CC(C)Cc1nn(C)c(=O)c2c(SCCCO)n(Cc3ccc(C#CCCCNC(=O)[C@@H](N)CCC(N)=O)c4ccccc34)cc12`, for which the EC50 came out at 4 nM.

With `CC(C)Cc1nn(C)c(=O)c2c(SCCCO)n(Cc3cnc(NCCCCCN)c4ccccc34)cc12`, the EC50 worked out at 0.8 nM.

For `CC(C)Cc1nn(C)c(=O)c2c(SCCCO)n(Cc3cc(NCCCCCN)nc4ccccc34)cc12`, the EC50 turned out to be 24 nM.

On to `CC(C)Cc1nn(C)c(=O)c2c(SCCCO)n(Cc3cc(NCCCCCNC(=O)[C@@H](N)CCC(N)=O)nc4ccccc34)cc12`, for which the EC50 is 0.8 nM.

For the compound `CC(C)Cc1nn(C)c(=O)c2c(SCCCO)n(Cc3cnc(NCCCCCNC(=O)[C@@H](N)CCC(N)=O)c4ccccc34)cc12`, the concentration for a half-maximal effect (EC50) worked out at 0.16 nM.

For `CC(C)Cc1nn(C)c(=O)c2c(SCCCO)n(Cc3ccc(C#CCCCOc4ccc(C[C@H](N)C(=O)O)cc4)c4ccccc34)cc12`, the EC50 was determined as 0.8 nM.

`CC(C)Cc1nn(C)c(=O)c2c(SCCCO)n(Cc3ccnc(Cl)c3)cc12`: the EC50 turned out to be 1000 nM.

Consider `CC(C)Cc1nn(C)c(=O)c2c(SCCCO)n(Cc3ccc(NCCCCCNC(=O)[C@@H](N)CCC(N)=O)nc3)cc12`, for which the EC50 is 100 nM.

As for `CC(C)Cc1nn(C)c(=O)c2c(SCCCO)n(Cc3cnc(Cl)c4ccccc34)cc12`, the EC50 is 55 nM.

Consider `CC(C)Cc1nn(C)c(=O)c2c(SCCCO)n(Cc3cc(Cl)nc4ccccc34)cc12`, for which the EC50 was 60 nM.

In the case of `CC(C)Cc1nn(C)c(=O)c2c(SCCCO)n(Cc3ccnc(NCCCCCNC(=O)[C@@H](N)CCC(N)=O)c3)cc12`, the EC50 amounted to 500 nM.
